Where two headings read alike, the source gives them in different places. Blank lines part the entries; values can stand above or below the molecule they belong to.
What was measured:
[1] = target: T1, β-secretase (Homo sapiens, UniProt P56817); experiment: β-secretase inhibitor assay: purified β-secretase, MBP-C125 SW substrate, ELISA
[2] = target: T2, β-secretase cleavage of APP in membranes from 293 cells transfected with the Swedish variant of APP (Homo sapiens, UniProt P56817); experiment: cell membrane (in situ) β-secretase cleavage of APP, 293SW cell membranes, 192SW immunoblot; type: biochemical
T2 construct: membranes from 293 cells transfected with the Swedish variant of APP (293SWE cells); endogenous in cells; host or cells: 293SW cells (human 293 cells stably transfected with Swedish APP); saponin-extracted P2 membrane pellet
Excerpt: Generation of β-secretase cleaved APP fragments from the endogenous full length APP protein was observed using the 192SW antibody (described above) in membranes from 293 cells transfected with the Swedish variant of APP (293SWE cells). APP fragments may be measured by immunoprecipitation or by immunoblotting. The latter technique is preferred for reasons of convenience.
A semiquantitative assay for the detecting in situ β-secretase cleavage of APP in membranes was developed used to directly identify β-secretase inhibitors. The membrane assay is useful as a primary screen or as a secondary assay to confirm inhibiting activity of potential inhibitors identified in the assays described above.
Cell membrane assays were run as follows. […]
For β-secretase inhibition assays, 10 μl of the test compound of interest at 5 times its desired final concentration, in 500 mM sodium acetate, pH 5.5, and 20% DMSO, was added to 40 μl of the extracted P2 suspension. […] Membranes were blocked in NCS-TBS (10% newborn calf serum, 150 mM sodium chloride, 50 mM Tris, pH 7.5), and analyzed using 192SW, 0.5 μg/ml in NCS-TBS, as primary antibody, horseradish peroxidase-linked anti-rabbit IgG (Amersham) diluted 1:3000 in NCS-TBS as secondary antibody, and ECL reagent (Amersham) as chemilumenescent developer. The 192SW-reactive bands identified by autoradiography were quantitated by densitometry.

[3] = target: T1, β-secretase; experiment: binding of substantially purified β-secretase activity to immobilized lectins; set-up: endogenous in cells; host or cells: human 293 cells or human brain; solubilized membrane extract purified by WGA, SP, Q, Con A and Superdex 200 chromatography; details: for β-Secretase Binding: immobilized lectins
Experimental: Glycosylation of β-secretase has been investigated using various immobilized lectins, and ability of substantially purified β-secretase activity to bind to them was determined. […] A “−” sign signifies less than 20% binding, “+” between 24-40% binding, “++” between 50-75% binding, and “+++”>75% binding.

[4] = concentration of inhibitor giving 50% inhibition of control activity

T1 sequence (P56817 46-501): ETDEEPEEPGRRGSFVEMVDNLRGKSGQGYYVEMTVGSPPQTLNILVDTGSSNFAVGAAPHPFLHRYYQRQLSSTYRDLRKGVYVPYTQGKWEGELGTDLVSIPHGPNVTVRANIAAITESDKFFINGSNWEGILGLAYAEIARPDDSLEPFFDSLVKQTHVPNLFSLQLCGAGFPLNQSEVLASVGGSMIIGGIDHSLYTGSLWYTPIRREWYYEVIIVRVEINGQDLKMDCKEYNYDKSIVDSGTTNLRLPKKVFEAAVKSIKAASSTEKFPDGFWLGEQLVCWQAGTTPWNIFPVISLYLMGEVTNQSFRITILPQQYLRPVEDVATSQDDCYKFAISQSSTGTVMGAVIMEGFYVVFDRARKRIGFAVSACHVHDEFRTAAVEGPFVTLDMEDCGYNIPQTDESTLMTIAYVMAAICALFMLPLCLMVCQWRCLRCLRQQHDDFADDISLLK

Molecule: m-phenanthroline
IC50 [1, 4]: 7 mM

Molecule: Nc1c(/N=N/c2ccc(-c3ccc(/N=N/c4cc(S(=O)(=O)O)c5ccccc5c4N)cc3)cc2)cc(S(=O)(=O)O)c2ccccc12 [Congo Red]
activity in the ELISA assay ([1]; ELISA assay): much more potent than an inactive control compound | activity in the in situ assay [2]: much more potent than an inactive control compound

β-Secretase Binding [3]: + (between 24-40% binding)
Molecule: wheat germ - succinylated (SWGA): immobilized lectin

β-Secretase Binding [3]: + + +
Molecule: wheat germ (WGA): immobilized lectin
binding of β-secretase activity [3]: quantitatively

IC50 [1, 4]: 2 mM
Molecule: [Cu+2] [Cu]

IC50 [1, 4]: 3 mM
Molecule: [Zn+2] [Zn]

Molecule: CCCCC(NC(=O)C=[N+]=[N-])C(=O)OC (stereo not shown) [diazoacetylnorleucyl-methyl ester]
IC50 [1]: > 5 mM

Molecule: c1cnc2c(c1)ccc1cccnc12 [o-phenanthroline]
IC50 [1, 4]: 7 mM | inhibition of β-secretase activity ([1]; summary of Table 3): inhibits poorly

β-Secretase Binding [3]: + (between 24-40% binding)
B1: lentil (LCA): immobilized lectin (protein)
chain 1: TETTSFSITKFSPDQKNLIFQGDGYTTKGKLTLTKAVKSTVGRALYSTPIHIWDRDTGNVANFVTSFTFVIDAPSSYNVADEFTFFIAPVDTKPQTGGGYLGVFNSKEYDKTSQTVAVEFDTFYNAAWDPSNKERHIGIDVNSIKSVNTKSWNLQNGERANVVIAFNAATNVLTVTLTYP
chain 2: VTSYTLNEVVPLKDVVPEWVRIGFSATTGAEFAAHEVHSWSFHSELGGTSSS

β-Secretase Binding [3]: + (between 24-40% binding)
B2: peanut (PNA): immobilized lectin (protein, UniProt P02872 24-273, looked up)
Galactose-binding lectin: AETVSFNFNSFSEGNPAINFQGDVTVLSNGNIQLTNLNKVNSVGRVLYAMPVRIWSSATGNVASFLTSFSFEMKDIKDYDPADGIIFFIAPEDTQIPAGSIGGGTLGVSDTKGAGHFVGVEFDTYSNSEYNDPPTDHVGIDVNSVDSVKTVPWNSVSGAVVKVTVIYDSSTKTLSVAVTNDNGDITTIAQVVDLKAKLPERVKFGFSASGSLGGRQIHLIRSWSFTSTLITTTRRSIDNNEKKIMNMASA
modifications: immobilized
notes: immobilized lectin

Source: patent US6852482B1, “Methods and compositions for inhibiting β-secretase” (Elan Pharmaceuticals, Inc., priority 1995, dated 2005)
